# In patent publication US10799501B2, “Combination of an inhibitor of PARP with an inhibitor of GSK-3 or DOT1L” (King's College London, priority 2015, dated 2020):
# Tests used:
# MLL LSC = assay: Colony formation and differentiation of MLL LSC with PARPi, LiCl or combination; assay type: cell-based, mouse; details: seven days; 8 mM LiCl, 1 μM Olaparib
# Experimental: Colonies were scored 6-7 days after plating. For other in vitro studies, mouse leukemic cells and primary AML cell lines were subjected to continuously Olaparib (1 μM) or LiCl (8 mM) treatment in liquid culture for whole duration as indicated in the figures or figure legends. For human leukemic cell lines, experiments were performed as described above with 5 μM Olaparib. 1×10^5 cells were cytospun for 5 min at 300 g onto glass slides. Slides were then stained with May-Grunwald solution (Sigma-Aldrich) for 3 min at room temperature. After washing in water, they were incubated for 20 min in Giemsa solution (Sigma-Aldrich) (1:20 in water). Slides were washed again in water before being mounted with Mowiol. Cells were counted in at least 5 fields for each slide, for a total of over 100 cells per condition. NBT reduction assay were performed to determine myeloid differentiation. 0.1% of NBT (final concentration) was added to the liquid culture or semi-solid methocult and incubated at 37° C. CO2 incubator for 3 hrs and 12 hrs, respectively. Cells were then washed in PBS and the differentiated cells were indicated by the deposition of dark blue insoluble formazan (NBT positive cells) and the percentage of differentiated cells were counted under microscopy. At least 200 cells were counted in most of the cases.
# [1] = tested on: MLL-AF9 transformed cells; assay: In vitro drug treatment of primary murine hematopoietic cells transformed by MLL-AF9 (RTTA); assay type: cell-based, mouse
# Experimental: (§1) Transduction using concentrated viral supernatant expressing the oncogene of interest was carried out by centrifugation (spinoculation) at 800 g at 32° C. for 2 hours in the presence of 5 μg ml^-1 polybrene (Sigma-Aldrich). Cells were subsequently plated in 1% methylcellulose medium ([…]; Stem Cell Technologies) containing 20 ngml^-1 SCF, 10 ngml^-1 IL-3, 10 ngml^-1 IL-6 and 10 ngml^-1 granulocyte macrophage colony-stimulating factor (GM-CSF) and appropriate selection antibiotic. Colonies were counted after 7 days of culture and replated every 6-7 days at 5×103-1.5×10^4 cell density. Re-plating was performed weekly to generate primary cell lines for further analysis. After the third or fourth round of plating, cells were cultured in R20/20 medium (RPMI 1640, 20% FCS, 20% WEHI-conditioned medium, 2 mM L-glutamine, 100 U/ml penicillin, and 100 μg/ml streptomycin) supplemented with 20 ngml^-1 stem cell factor (SCF), 10 ngml^-1 interleukin (IL)-3, and 10 ngml^-1 IL-6 to establish cell lines. All recombinant murine cytokines were from PeprotechEC. […] Colonies were scored 6-7 days after plating. For other in vitro studies, mouse leukemic cells and primary AML cell lines were subjected to continuously Olaparib (1 μM) or LiCl (8 mM) treatment in liquid culture for whole duration as indicated in the figures or figure legends. For human leukemic cell lines, experiments were performed as described above with 5 μM Olaparib. Cells were cytospun onto a glass slide at 400 g for 5 minutes and then fixed for 10 minutes with 2% formaldehyde/0.2% glutaraldehyde (Sigma Aldrich). Cells were then washed with PBS, and then incubated at 37° C. for at least 2 hours with a staining solution (30 mM Citric Acid/Phosphate buffer, 5 mM K4Fe(CN)6, 5 mM K3Fe(CN)6, 150 mM NaCl, 2 mM MgCl2, 1 mg/ml X-Gal) (All reagents from Sigma-Aldrich)62. Cells were counted in at least 5 fields for each slide, for a total of over 100 cells. The percentage of senescent cells was calculated by the percentage of the number of blue cell in the field. Cells were cytospun onto a glass slide at 400 g for 5 minutes and then fixed for 30 minutes in 4% PFA and permeabilized and blocked in 0.8% Tx-100, 10% FBS/1% BSA (Sigma-Aldrich) in PBS for 15 min at room temperature. […] Cells were counted in at least 5 fields for each slide, for a total of over 100 cells per condition. […] Cells were counted in at least 5 fields for each slide, for a total of over 100 cells per condition. […] Cells were then washed in PBS and the differentiated cells were indicated by the deposition of dark blue insoluble formazan (NBT positive cells) and the percentage of differentiated cells were counted under microscopy. At least 200 cells were counted in most of the cases.
# [2] = tested on: primary human MLL leukemic cells from patient AML1; assay: NSG mice transplanted with primary AML1 cells (luciferase), Olaparib and lithium carbonate diet; assay type: in vivo, mouse; details: NSG mice, leukemia driven by primary AML1 cells; Olaparib, Li diet or combination in vivo
# Description: For in vivo experiment with primary AML samples, 10^5 AML1 cells transduced with firefly luciferase expressing plasmid were transplanted via by IF into the right femur of the NSG mice. Three days after transplantation, mice were supplemented with 0.4% LiCO3 containing diet and treated with Olaparib as described above for alternative day until day 21. After day 21, mice were maintained on 5 days of lithium carbonate diet and alternated with 2 days regular diet and water for 2 additional weeks. From day 21, the tumor burdens of the animals were detected using IVIS Lumina II® (Caliper) with software Living Image® Verion 4.3.1. Briefly, […] of 30 mg/mL luciferin were injected into the animals by IP. 10 minutes after injection, the animals were maintained in general anaesthesia by isoflurane and put into the IVIS chamber for photography and detection of photon emission (large binning, F=1.2, exposure time: 3 mins). The tumor burden were measured and quantified by the same software as instructed. The animals were culled when the tumor burden was 10e8 photon per second or higher.
# [3] = tested on: E2A-PBX transformed cells; assay: In vitro drug treatment of primary murine hematopoietic cells transformed by E2A-PBX (RTTA); assay type: cell-based, mouse
# Experimental: as §1, with “Cells were cytospun onto a glass slide at 400 g for 5 minutes and then fixed for 10 minutes with 2% formaldehyde/0.2% glutaraldehyde (Sigma Aldrich). Cells were then washed with PBS, and then incubated at 37° C. for at least 2 hours with a staining solution (30 mM Citric Acid/Phosphate buffer, 5 mM K4Fe(CN)6, 5 mM K3Fe(CN)6, 150 mM NaCl, 2 mM MgCl2, 1 mg/ml X-Gal) (All reagents from Sigma-Aldrich)62.” left out, “field.” for “field. Cells were cytospun onto a glass slide at 400 g for 5 minutes and then fixed for 30 minutes in 4% PFA and permeabilized and blocked in 0.8% Tx-100, 10% FBS/1% BSA (Sigma-Aldrich) in PBS for 15 min at room temperature.”
# [4] = 1 uM Olaparib, methylcellulose 7 days
smiles,measurement,setting,value
"O=C(c1cc(Cc2n[nH]c(=O)c3ccccc23)ccc1F)N1CCN(C(=O)C2CC2)CC1 [Olaparib, 4-[(3-[(4-cyclopropylcarbonyl)piperazin-4-yl]carbonyl)-4-fluorophenyl]methyl(2H)-phthalazin-1-one]",colony forming ability / leukemic cell growth,MLL LSC,ineffective
same,impact on colony forming ability,[1]; [4],little impact
same,"differentiation, G1 arrest, senescence, apoptosis effects",[1]; PARPi treatment,none of these effects were observed
same,Rad51 recruitment to DNA damage sites (RAD51 foci),[1]; PARPi treatment for 6 hours,able to form RAD51 foci
same,BM Engraftment (%),[2],53.23 ± 23.21%
same,Disease Latency (days; median),[2],60 days
same,Hematopoietic Liver Engraftment (%),[2],23.20 ± 20.61%
same,Hematopoietic Spleen Engraftment (%),[2],2.733 ± 4.166%
same,Liver,[2],1.30 ± 0.134 g
same,Spleen,[2],0.136 ± 0.029 g
same,impact on colony forming ability,[3]; [4],little impact
same,"differentiation, G1 arrest, senescence, apoptosis effects",[3]; PARPi treatment,none of these effects were observed
same,Rad51 recruitment to DNA damage sites (RAD51 foci),[3]; PARPi treatment for 6 hours,able to form RAD51 foci
